Experimental data as given in patent US5225426A, “Thiazolidine-2,4-dione compound and method of treatment of diabetic complications” (Terumo Kabushiki Kaisha, priority 1990, dated 1993).

Key:
[1] = tested on: Sorbitol in Red Blood Cells; assay: Action to Curb Accumulation of Sorbitol in Red Blood Cells (streptozotocin diabetic rats); type: in vivo, Wistar type male rats; settings: control medicine 50 mg/kg×2/day, oral, four days; packed red cells, blood 3 hours after administration
Description: (§1) Groups each of five three-week old Wistar type male rats were used for the test. To the rats, streptozotocin was administered at a concentration of 65 mg/kg via the tail vein. Of these rats, those whose blood sugar values fell in the range of from 250 to 650 mg/dl one week after the administration were designated as diabetic rats. As a control medicine, Compound 4 represented by the formula VII was used. [drawing 9]
The […] groups, i.e. the group of untreated diabetic rats, the group of rats subjected to administration of control medicine (50 mg/kg×2/day), the group of rats subjected to administration of sample (100 mg/kg/day), and the group of normal rats, were tested. A given medicine was suspended in 5% gum arabic and orally administered continually for four days after the elapse of two weeks following the onset of diabetes. To the group of untreated diabetic rats and the group of normal rats, a 5% gum arabic solution […] was administered in a ratio of 10 ml/kg. After the elapse of three hours following the administration, the blood was extracted from each rat with the aid of heparin via the tail vein (for the determination of blood sugar) and the abdominal aorta. […]
The blood sugar drop ratio and the sorbitol accumulation inhibition ratio were calculated in accordance with Formula 1 and Formula 2. […]

blood sugar = assay: Blood sugar drop ratio in streptozotocin diabetic rats; type: in vivo, Wistar type male rats; settings: oral, four days, blood 3 hours after administration
Description: as §1
The five groups, i.e. the group of untreated diabetic rats, the group of rats subjected to administration of control medicine (50 mg/kg×2/day), the group of rats subjected to administration of sample (100 mg/kg/day), and the group of normal rats, were tested. A given medicine was suspended in 5% gum arabic and orally administered continually for four days after the elapse of two weeks following the onset of diabetes. To the group of untreated diabetic rats and the group of normal rats, a 5% gum arabic solution […] was administered in a ratio of 10 ml/kg. After the elapse of three hours following the administration, the blood was extracted from each rat with the aid of heparin via the tail vein (for the determination of blood sugar) and the abdominal aorta.
The PRC was tested for sorbitol content by the Malon et al's method [Diabetes, 29, 861-864 (1980)]. The determination of the blood sugar value was carried out by the alucose-oxidase method.
The blood sugar drop ratio and the sorbitol accumulation inhibition ratio were calculated in accordance with Formula 1 and Formula 2.
Blood sugar drop ratio (%)=(1-[(Average blood sugar value of the group of rats subjected to administration of sample or control medicine-Average blood sugar value of the group of normal rats)/(Average blood sugar value of the group of untreated diabetic rats-Average blood sugar value of the group of normal rats)])×100

in vivo = settings: mouse, oral, ICR type male mice (five-week old)
Description: The compounds 1, 2 and 3 of this invention were tested for acute toxicity by oral administration thereof to ICR type male mice (five-week old).

aldose reductase = biological target: T1, aldose reductase (Rattus norvegicus, UniProt P07943); assay: Determination of Aldose Reductase-inhibiting Activity; type: biochemical, Wistar type male rat (crystalline lens); settings: rat lens enzyme; 0.1 mM DL-glyceraldehyde, 0.03 mM NADPH, pH 7.0, 30° C., 30 minutes; read-out: 50% inhibition concentration (IC50)
T1 construct: From the crystalline lens, aldose reductase was prepared; from tissue; host or cells: crystalline lens of five-week old male Wistar rat
Description: A five-week old Wistar type male rat was sacrificed under anesthesia and immediately dissected to remove crystalline lens. From the crystalline lens, aldose reductase was prepared by following the Hyman et al's method [J. Biol. Chem., 240, 877-882 (1965)] with necessary modifications. The aldose reductase activity was determined by the Dufrane et al's method [Biochem. Med., 32, 99-105 (1984)]. In 400 μl of a 135 mM sodium-potassium phosphate buffer solution (pH 7.0) prepared in advance so as to contain 100 mM lithium sulfate, 0.03 mM NADPH (reducing type nicotinamide adenine dinucleotide phosphate), and 0.1 mM DL-glyceraldehyde as a substrate, 50 μl of the aforementioned aldose reductase and 50 μl of a sample of a varying concentration (having Compound 1, or Compound 2, or Compound 3 dissolved in ethanol) added thereto were left reacting at 30° C. for 30 minutes. Then, the reaction was stopped by addition of 0.15 ml of 0.5N hydrochloric acid. The NADP (oxide type nicotinamide adenine dinucleotide phosphate) produced by the reaction in the reaction mixture was converted into a fluorescent substance by the addition thereto of 0.5 ml of 6N sodium hydroxide containing 10 mM imidazole. After the elapse of 60 minutes following the conversion, the produced reaction mixture was tested for intensity of fluorescence. The intensity of fluorescence was determined by the use of a fluorescence tester (produced by Corona Denki K.K. and marketed under trademark designation of "MTP-100F Corona Microplate Reader") under the conditions of 360 nm of excitation wavelength and 460 nm of fluorescent wavelength. The intensity of fluorescence determined by repeating the procedure described above, except ethanol was added in the place of the sample was used as a control value. As the aldose reductase inhibiting activity of a sample, the concentration of the sample required for inhibiting 50% of the aldose reductase activity due to a decline of the intensity of fluorescence (i.e. 50% inhibition concentration: IC50 value) was obtained.

Row | SMILES | Sorbitol accumulation inhibition ratio [1] [%] | Blood sugar drop ratio (blood sugar; control medicine 50 mg/kg×2/day) [%] | LD50 (in vivo) [mg/kg] | IC50 (aldose reductase) [µM] | Blood sugar drop ratio (blood sugar; sample 100 mg/kg/day) [%]
1 | CC(=Cc1ccccc1)C=C1SC(=S)N(CC(=O)O)C1=O [Compound 4, reference compound] | 90.3 | 7.2 | – | – | –
2 | COc1cc(C=CC(=O)c2ccc(CC3SC(=O)NC3=O)cc2)ccc1O (centres unmarked) [Compound 2, 5-{4-[3-(4-hydroxy-3-methoxyphenyl)-2-propenoyl]benzyl}thiazolidine-2,4-dione] | – | – | ≥ 1000 | 4.2 | 60.5
3 | COc1cc(C=CC(=O)c2cccc(CC3SC(=O)NC3=O)c2)ccc1O (centres unmarked) [Compound 3, 5-{3-[3-(4-hydroxy-3-methoxyphenyl)-2-propenoyl]benzyl}thiazolidine-2,4-dione] | – | – | ≥ 1000 | 1.9 | 42.6
4 | O=C1NC(=O)C(Cc2ccc(C(=O)C=Cc3ccc(O)c(O)c3)cc2)S1 (centres unmarked) [Compound 1, 5-{4-[3-(3,4-dihydroxyphenyl)-2-propenoyl]benzyl}thiazolidine-2,4-dione] | – | – | ≥ 1000 | 0.52 | 46.8
